Several values for one entry are separate records, joined by “and”; a condition that tells them apart may be missing. Equal values may be shown once.
Assays:
CYP1A2 = biological target: T1, CYP1A2 (Homo sapiens, UniProt P05177); assay: Metabolism in transgenic HEK293 cells expressing CYP1A2 (LC-MS/MS of supernatant)
T1 sequence (P05177 1-516): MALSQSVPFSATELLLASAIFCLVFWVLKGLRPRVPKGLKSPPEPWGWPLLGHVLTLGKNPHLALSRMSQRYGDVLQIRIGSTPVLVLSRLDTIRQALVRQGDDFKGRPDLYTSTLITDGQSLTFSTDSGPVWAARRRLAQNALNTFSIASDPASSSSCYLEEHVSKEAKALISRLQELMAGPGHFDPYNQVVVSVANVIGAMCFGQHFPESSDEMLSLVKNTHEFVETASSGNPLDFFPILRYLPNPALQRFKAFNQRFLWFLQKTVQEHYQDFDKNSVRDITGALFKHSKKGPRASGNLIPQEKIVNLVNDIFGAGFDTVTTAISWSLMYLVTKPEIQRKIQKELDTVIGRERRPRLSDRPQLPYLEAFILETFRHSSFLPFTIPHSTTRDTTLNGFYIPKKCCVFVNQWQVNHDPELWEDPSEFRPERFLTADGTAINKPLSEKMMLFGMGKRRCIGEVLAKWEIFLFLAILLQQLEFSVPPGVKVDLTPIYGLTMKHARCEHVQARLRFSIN
Experimental: (§1) For the generation of transgenic cell lines, we used semi-adherent HEK293 cells (DSMZ, ACC305, human embryonic kidney cells) which were cultured on a daily basis in DMEM medium supplemented with 10% (FCS) and 1% penicillin/streptomycin. In a first step CYP1A2, CYP2C8, CYP2C9, CYP3A4, CYP2A6, and CYP2E1 cDNA were cloned into the plasmid pcDNATM3.1/V5-His TOPO® using human liver RNA as a template and using the following primers: CYP1A2 for5′-[…]-3′, CYP1A2 rev 5′-[…]-3′; CYP2C8 for 5′-[…]-3′, CYP2C8 rev 5′-[…]-3′; CYP2C9 for 5′-[…]-3′, CYP2C9 rev 5′-[…]-3′; CYP3A4 for 5′-[…]-3′, CYP3A4 rev 5′-[…]-3′, CYP2A6 for 5′-[…]-3′, CYP2A6 rev 5′-[…]-3′; CYP2E1 for 5′-[…]-3′, CYP2E1 rev 5′-[…]-3′. Final constructs were verified with Sanger DNA sequencing and restriction digestion. For transfection, 3 × 10^6 HEK293 cells were pre-incubated in a 10 cm dish in DMEM medium with 10% FCS, but without antibiotics, for 18 to 24 h. When the cells reached approximately 70% confluency, they were transfected using TransIT-LT1 transfection reagent (Biozol, Eiching, Germany). The TransIT-LT1 reagent was warmed to room temperature and vortexed. 1.63 mL Opti-MEM, 16.25 µL plasmid DNA (1 µg/µL), and 48.75 µL TransIT-LT1 reagent were mixed and incubated for 15 to 30 min. The mixture was then added dropwise to the medium of the cells, and the cells were incubated again at 37 °C and 5% CO2. After 24 h, the medium was replaced with standard medium and geneticin was added for selection (1 mg/mL). Cells were selected for 6–8 weeks in bulk culture, and single cell clones were obtained subsequently by limiting dilution. Each clone was checked for insertion by PCR using genomic DNA as a template.
(§2) Parallel samples were run without the addition of PCBs. At a confluence of 80%, PCBs (20 μM each, dissolved in ethanol) were added and cells were incubated for 24 h before harvest of supernatants. Supernatants were diluted 1:2 with 80 μL acetate buffer 0.1 M (pH = 5.3). 100 μL of this dilution were further incubated with 100 μL of ammonium acetate buffer 0.1 M (pH = 5.3) and 5 μL of β-Glucuronidase/Arylsulfatase enzyme overnight in a drying oven at 37 °C for enzymatic hydrolysis to release conjugated compounds. 50 μL of a mix of internal standards (10 ng/mL) and 600 μL of methanol were added to the samples, then mixed by vortexing for 1 min and centrifuged for 10 min at 3400g. The individual supernatants were transferred to glass LC vials and evaporated to approximately 50 μL at 45 °C under a gentle stream of nitrogen. Finally, 0.1 mol/ L ammonium acetate buffer was added to a final volume of 100 μL and then transferred to an insert for analysis.
(§3) HEK293 cells overexpressing the respective CYP enzymes were seeded onto 6-well plates and were treated with or without 10 µM of the respective probe drug in DMEM medium for 24 hours at 37 °C and 5 % CO2. After incubation 200 µL DMEM were collected, cells were washed with PBS and adherent cells were lysed in 500 µL methanol for 20 minutes. Analytes were measured by LC-MS/MS either in methanol cell lysates or in DMEM supernatant.
(§4) 50 µL of DMEM samples were protein precipitated by adding 200 µL of methanol and were centrifuged for 20 min, 17,000 g and 4°C. Supernatants were diluted in water or 40 % methanol according to dilution factor. Methanol cell lysates were diluted ½ with water and centrifuged for 20 min, 17,000 g and 4°C. 5 µL of the processed samples were injected for LC-MS analysis.

HEK293CYP2A6 cells = assay: Micronucleus assay in HEK293CYP2A6 cells; assay type: cell-based, human; settings: positive control, 10 µm, 24 h
Experimental: Transgenic HEK293CYP2A6 and HEK293CYP2C9 cells were cultured in T25 flasks, with a seeding density of 1 × 10^6 cells per flask at 37 °C with 5% CO2. Cells were allowed to grow for 24 h geneticin free before PCBs were added (20 µM or 30 µM). Controls included cells grown in the presence of 1% ethanol (vol/vol) (negative control) or […] 4-nitroquinoline 1-oxide (positive control). Following further incubation for 24 h, cells were synchronized by adding Cytochalasin B. Subsequently, cells were harvested by trypsinization, centrifuged (2,000g, 10 min), and washed with DPBS (Dulbecco’s PBS). For hypotonic shock, 4 °C cold potassium chloride solution was added to the cells under agitation. Cells were completely resuspended and incubated at room temperature for 5 min. After centrifugation (2,500g, 10 min), the supernatant was discarded. To fix the cells, they were treated with a methanol/acetic acid solution (− 20 °C), with a minimum incubation time of 15 min at room temperature. Following centrifugation (2,500g, 10 min), the supernatant was discarded, and the fixation process was repeated at least three times. Finally, the samples were dissolved in 1 mL of fixative solution and incubated overnight at 4 °C. For analysis, two to three drops from each sample were placed on a glass slide, with intermittent heating of the slide. Subsequently, the cells were visualized with acridine orange, and using a fluorescence microscope (Leica DM6000B, Filter I3 450–490 nm), 2,000 cells per sample were counted.

CYP2C8 = biological target: T2, CYP2C8 (Homo sapiens, UniProt P10632); assay: Metabolism in transgenic HEK293 cells expressing CYP2C8; assay type: in vitro ADME; settings: 20 µM parent PCB, 24 h, supernatant
T2 construct: V5-His (vector-encoded) (C); expressed in transfected cells
T2 sequence (P10632 1-490): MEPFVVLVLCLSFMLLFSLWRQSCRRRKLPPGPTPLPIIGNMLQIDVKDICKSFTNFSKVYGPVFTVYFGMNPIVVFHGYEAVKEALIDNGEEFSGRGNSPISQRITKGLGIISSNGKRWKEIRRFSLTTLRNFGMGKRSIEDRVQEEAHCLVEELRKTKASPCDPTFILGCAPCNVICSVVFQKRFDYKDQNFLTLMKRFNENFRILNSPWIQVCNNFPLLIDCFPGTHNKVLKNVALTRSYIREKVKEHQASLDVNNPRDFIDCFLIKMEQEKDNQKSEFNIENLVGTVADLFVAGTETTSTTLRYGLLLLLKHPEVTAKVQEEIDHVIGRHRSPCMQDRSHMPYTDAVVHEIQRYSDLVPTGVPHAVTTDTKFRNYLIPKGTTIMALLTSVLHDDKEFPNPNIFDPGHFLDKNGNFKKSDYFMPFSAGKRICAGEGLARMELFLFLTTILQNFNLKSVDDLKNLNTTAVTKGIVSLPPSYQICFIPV
Experimental: as §1
as §2, with “analysis. […]” for “analysis.”

CYP3A4 = CYP3A4 (Homo sapiens, UniProt P08684); assay: Metabolism in transgenic HEK293 cells expressing CYP3A4; settings: 20 µM parent PCB, 24 h, supernatant
Experimental: as §1, §2, §3, §4

CYP2E1 = CYP2E1 (Homo sapiens, UniProt P05181); assay: Metabolism in transgenic HEK293 cells expressing CYP2E1; settings: 20 µM parent PCB, 24 h, supernatant
Experimental: as §1, §2, §3, §4

CYP2A6 = biological target: T3, CYP2A6 (Homo sapiens, UniProt P11509); assay: Metabolism in transgenic HEK293 cells expressing CYP2A6; assay type: in vitro ADME; parameters: V5-His (vector-encoded) (C); expressed in transfected cells; settings: 20 µM parent PCB, 24 h; for Quantification of metabolites generated from PCB28, 52, and 101: supernatant; for Metabolite concentration formed, range across cell clones: HEK293CYP2A6 cell lines
T3 sequence (P11509 1-494): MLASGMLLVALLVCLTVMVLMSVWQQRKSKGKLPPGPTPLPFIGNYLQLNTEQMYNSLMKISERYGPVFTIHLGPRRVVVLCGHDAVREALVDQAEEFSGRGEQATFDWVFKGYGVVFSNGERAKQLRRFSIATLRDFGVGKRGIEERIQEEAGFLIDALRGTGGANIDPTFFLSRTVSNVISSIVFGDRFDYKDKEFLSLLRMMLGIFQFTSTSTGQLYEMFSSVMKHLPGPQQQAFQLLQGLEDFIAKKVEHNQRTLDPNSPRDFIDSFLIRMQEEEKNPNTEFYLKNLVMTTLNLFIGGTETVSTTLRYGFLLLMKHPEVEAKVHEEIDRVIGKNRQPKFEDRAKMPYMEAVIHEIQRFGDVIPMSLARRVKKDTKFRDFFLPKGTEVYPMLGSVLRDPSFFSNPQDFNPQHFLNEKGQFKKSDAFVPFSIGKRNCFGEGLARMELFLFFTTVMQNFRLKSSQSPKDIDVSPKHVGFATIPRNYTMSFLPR
Experimental: as §1, §2, §3, §4

Sequence of CYP2E1 (P05181 whole entry): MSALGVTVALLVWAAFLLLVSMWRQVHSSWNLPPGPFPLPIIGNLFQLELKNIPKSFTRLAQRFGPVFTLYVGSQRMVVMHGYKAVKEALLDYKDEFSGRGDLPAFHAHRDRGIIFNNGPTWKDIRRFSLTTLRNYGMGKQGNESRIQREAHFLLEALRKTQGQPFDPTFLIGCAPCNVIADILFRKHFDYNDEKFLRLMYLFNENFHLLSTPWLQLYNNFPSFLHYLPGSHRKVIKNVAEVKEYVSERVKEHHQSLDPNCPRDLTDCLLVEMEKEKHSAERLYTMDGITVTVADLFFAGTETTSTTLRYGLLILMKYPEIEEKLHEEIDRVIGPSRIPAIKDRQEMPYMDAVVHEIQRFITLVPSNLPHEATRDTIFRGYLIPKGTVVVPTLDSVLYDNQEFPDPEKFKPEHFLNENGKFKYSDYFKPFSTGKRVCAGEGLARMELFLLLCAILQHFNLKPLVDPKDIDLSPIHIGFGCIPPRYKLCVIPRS
Sequence of CYP3A4 (P08684 whole entry): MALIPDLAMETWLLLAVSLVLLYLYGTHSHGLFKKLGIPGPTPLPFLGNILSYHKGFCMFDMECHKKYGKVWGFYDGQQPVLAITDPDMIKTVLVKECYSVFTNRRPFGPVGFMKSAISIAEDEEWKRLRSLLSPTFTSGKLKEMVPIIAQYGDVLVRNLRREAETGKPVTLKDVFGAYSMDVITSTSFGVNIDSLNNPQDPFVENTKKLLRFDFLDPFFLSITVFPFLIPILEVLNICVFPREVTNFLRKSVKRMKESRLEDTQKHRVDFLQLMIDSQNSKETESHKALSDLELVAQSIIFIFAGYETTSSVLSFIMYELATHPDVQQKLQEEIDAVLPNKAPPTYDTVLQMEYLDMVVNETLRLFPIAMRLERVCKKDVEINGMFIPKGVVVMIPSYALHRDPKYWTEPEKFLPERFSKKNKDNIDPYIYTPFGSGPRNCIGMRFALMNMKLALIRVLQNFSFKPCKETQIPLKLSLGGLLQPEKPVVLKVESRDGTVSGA

Oc1ccc(-c2ccc(Cl)cc2)c(Cl)c1Cl [4′-OHCB25, 2′,3′,4-trichloro-4′-biphenylol]
Metabolite concentration formed, range across cell clones (CYP1A2; HEK293CYP1A2 cell clones, 20 µM PCB28, 24 h): 0.15–0.23 µg/L and 0.56–0.84 nM

O=[N+]([O-])c1cc[n+]([O-])c2ccccc12 [4-nitroquinoline-(1)-oxide, reference compound]
Micronucleus formation compared to the negative control ethanol (HEK293CYP2A6 cells): consistent and significant elevation

Cn1c(=O)c2c(ncn2C)n(C)c1=O [Caffeine, reference compound]
Conversion product (CYP1A2; HEK293CYP1A2, 10 µM substrate, 24 h): Paraxanthine

Oc1cc(Cl)c(-c2cc(Cl)ccc2Cl)cc1Cl [4-OHCB52, 2,2′,5,5′-tetrachloro-4-biphenylol]
Quantification of metabolites generated from PCB28, 52, and 101 (CYP2C8; CYP2C8 Clone A3): <LOQ
Quantification of metabolites generated from PCB28, 52, and 101 (CYP2C8; CYP2C8 Clone D8): 0,1 nM
Quantification of metabolites generated from PCB28, 52, and 101 (CYP2C8; CYP2C8 Clone D9): <LOQ
Quantification of metabolites generated from PCB28, 52, and 101 (CYP3A4; CYP3A4 Clone B4): 0,23 nM
Quantification of metabolites generated from PCB28, 52, and 101 (CYP3A4; CYP3A4 Clone D10): 0,72 nM
Quantification of metabolites generated from PCB28, 52, and 101 (CYP3A4; CYP3A4 Clone E6): 0,54 nM
Quantification of metabolites generated from PCB28, 52, and 101 (CYP2E1; CYP2E1 Clone B4): 5,55 nM
Quantification of metabolites generated from PCB28, 52, and 101 (CYP2E1; CYP2E1 Clone B5): 8,9 nM
Quantification of metabolites generated from PCB28, 52, and 101 (CYP2E1; CYP2E1 Clone E6): 10,23 nM
Quantification of metabolites generated from PCB28, 52, and 101 (CYP2A6; CYP2A6 Clone B7): 319,55 nM
Quantification of metabolites generated from PCB28, 52, and 101 (CYP2A6; CYP2A6 Clone C4): 1029,16 nM
Quantification of metabolites generated from PCB28, 52, and 101 (CYP2A6; CYP2A6 Clone C5): 30,78 nM
Metabolite concentration formed, range across cell clones (CYP2A6): 9.48 to 316.89 µg/L

Oc1cc(Cl)cc(-c2cc(Cl)ccc2Cl)c1Cl [3-OHCB52, 2,2′,5,5′-tetrachloro-3-biphenylol]
Quantification of metabolites generated from PCB28, 52, and 101 (CYP2C8; CYP2C8 Clone A3): <LOQ
Quantification of metabolites generated from PCB28, 52, and 101 (CYP2C8; CYP2C8 Clone D8): 0,09 nM
Quantification of metabolites generated from PCB28, 52, and 101 (CYP2C8; CYP2C8 Clone D9): <LOQ
Quantification of metabolites generated from PCB28, 52, and 101 (CYP3A4; CYP3A4 Clone B4): 0,21 nM
Quantification of metabolites generated from PCB28, 52, and 101 (CYP3A4; CYP3A4 Clone D10): 0,66 nM
Quantification of metabolites generated from PCB28, 52, and 101 (CYP3A4; CYP3A4 Clone E6): 0,45 nM
Quantification of metabolites generated from PCB28, 52, and 101 (CYP2E1; CYP2E1 Clone B4): 0,38 nM
Quantification of metabolites generated from PCB28, 52, and 101 (CYP2E1; CYP2E1 Clone B5): 0,59 nM
Quantification of metabolites generated from PCB28, 52, and 101 (CYP2E1; CYP2E1 Clone E6): 0,74 nM
Quantification of metabolites generated from PCB28, 52, and 101 (CYP2A6; CYP2A6 Clone B7): 0,87 nM
Quantification of metabolites generated from PCB28, 52, and 101 (CYP2A6; CYP2A6 Clone C4): 0,75 nM
Metabolite concentration formed, range across cell clones (CYP2A6): 0.23–0.27 µg/L and 0.74–0.87 nM
